# Experimental data taken from patent US20150018369A1 (priority 2012, published 2015).
# Like-named read-outs stand apart in the source and are kept apart here.
# Key:
# T98 g cells = experiment: Cell viability assay (WST-1), SAR of AI compounds at inducing cell death; format: cell-based, human; conditions: for EC50: Homo sapiens, T98G, 72 h
# Experimental: (§1) Cells were plated media supplemented with 10% serum in 96-well plates (10^4 cells per wellI; 0.1 ml per well). Once they reached ˜70% confluence, they were rinsed with PBS and kept for an additional 24 his in media supplemented with 1% serum, at which time drugs or vehicle (DMSO, 0.1%, prepared in 10 μl serum-free media) were directly added to each well. After 3 days, cell viability was assessed using the Cell Proliferation Reagent WST-1 (Roche, Indianapolis, Ind.). Briefly, WST-1 reagent (10 μl) was added to each well for 3 hrs at 37° C. with 5% CO2 and WST-1 products were read at 450 nm using Packard SpectraCount™.
# Because the strongest toxic effect of WIN55212-2 (ST-1) was measured in T98 g cells, these cells are used as readout to study the structure activity relationship (SAR) of AI compounds at inducing cell death. Table 2 provides the chemical structure, potency and efficacy of several AI compounds.
# AI receptors = experiment: GTPγS binding in HEK293 cell homogenates; format: biochemical, human
# Text: When comparing the overall amino acid sequence of GPR124 to that of CB1 and CB2 receptors no significant homology was found. However, when focusing the comparison to the amino acid sequence encoding for the third transmembrane domains of GPR124 and CB2 receptors, 84% homology was found (FIG. 5a). […] Therefore, it is likely that ST-1, ST-11, and other AI compounds interact directly with the third transmembrane domain of GPR124. To determine the signaling mechanism of AI receptors, effect of ST-11 in HEX293 cells, which express GPR124 endogenously and commonly used to study GPCR pharmacology and signaling pathway, was tested.
# CB2 = CB2 (Homo sapiens, UniProt P34972); experiment: HA-tagged receptor internalization, CB2; format: cell-based; set-up: HA; expressed in transfected cells; conditions: FIG. 2b
# Text: FIGS. 2d and 2e illustrate the co-docking of CP55940 and either WIN55212-2 (d) or ST-11 (e) in hCB1 receptors.
# [1] = system: T98 g, MDA231 and sknmc cells; experiment: Killing of cell lines lacking CB1/CB2 (sensitivity profile); format: cell-based, human
# Experimental: as §1
# Based on this evidence, it was determined if WIN55212-2 differentially kills T98 g, MDA231 and […] cells, thus providing an index of AI receptor functionality in these cells. Also tested is Δ^9-THC (classic cannabinoid) and CP55940 (non-classical cannabinoid).
# [2] = system: protein expressed by NG108-15 cells; conditions: cited from earlier work
# [3] = system: hippocampal slices from CB1-/- mice; conditions: blocked by capsazepine; cited from earlier work
# [4] = system: homogenates from CB1-/- mice cerebellum; conditions: insensitive to SR144528; cited from earlier work
# [5] = T98 g cells, cell death, viability after 3 days
# Sequence of CB2 (P34972 whole entry): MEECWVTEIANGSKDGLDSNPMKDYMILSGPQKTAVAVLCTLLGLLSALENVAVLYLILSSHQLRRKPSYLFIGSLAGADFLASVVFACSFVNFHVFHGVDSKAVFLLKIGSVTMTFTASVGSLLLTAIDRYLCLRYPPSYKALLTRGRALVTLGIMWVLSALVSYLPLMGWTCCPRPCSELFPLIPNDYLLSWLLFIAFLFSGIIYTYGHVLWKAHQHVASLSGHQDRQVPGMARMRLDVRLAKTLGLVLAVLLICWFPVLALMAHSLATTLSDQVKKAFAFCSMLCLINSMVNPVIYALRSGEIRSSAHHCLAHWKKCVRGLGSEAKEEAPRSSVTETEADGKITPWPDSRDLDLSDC
SMILES,EC50 (μM) (T98 g cells; [5]),EC50 (T98 g cells) [µM],further results
CCCCCn1cc(C(=O)c2cccc3ccccc23)cc1-c1cc(C)cc(O)c1 [ST-16],inactive,–,–
COCCn1cc(C(=O)N2CCCC(CN(C)C)C2)c2ccccc21 (stereo not shown) [ST-9],inactive,–,–
Cc1c(CNN2CCOCC2)nn(C)c1C [ST-49],inactive,–,–
CC(=O)c1c(C)n(CCOc2ccccc2)c2ccccc12 [ST-2],–,21,–
COc1ccc2c(C(=O)c3ccc(C)c4ccccc34)c(C)n(CCN3CCOCC3)c2c1 [ST-26],–,2.5,–
Cc1ccc(C(=O)c2c(C)n(CCN3CCOCC3)c3ccc(Cl)cc23)c2ccccc12 [ST-22],–,5.4,–
Cc1ccc(C(=O)c2c(C)n(CCN3CCOCC3)c3cnccc23)c2ccccc12 [ST-31],–,20,–
"CCn1c2ccccc2c2cc(C(=O)N3CCCc4ccccc43)ccc21 [ST-53, (9-ethyl-carbazol-3-yl)(1,2,3,4-tetrahydraquinoline)methanone]",–,–,"EC50 (T98 g cells; T98 g cells, cell death, viability after 3 days, read-out: EC50): 0.516 µM"
CCn1c(C)c(C(=O)c2cccc3ccccc23)c2ccccc21 [ST-13],–,7.9,–
Cc1ccc(C(=O)c2c(C)n(CC(F)(F)F)c3ccccc23)c2ccccc12 [ST-29],–,1,GTPγS binding (AI receptors): increase GTP[…]S binding; cross-activation of human CB2 receptors (receptor internalization) (CB2): engage CB2 receptors
"CCn1c2ccccc2c2cc(C(=O)N3CCN(C)CC3)ccc21 [ST-62, (9-ethyl-carbazol-3-yl)(N-methylpiperazine)methanone]",inactive,–,–
CCCn1c(C)c(C(=O)c2ccc(C)c3ccccc23)c2ccccc21 [ST-18],–,1.9,–
CCCn1c(C)c(C(=O)c2cccc3ccccc23)c2ccccc21 [ST-15],–,1.5,–
Cc1c(C(=O)C(F)(F)F)c2ccccc2n1CC(=O)NCc1ccccc1 [ST-6],inactive,–,–
COc1ccc(C(=O)c2c(C)n(CCN3CCOCC3)c3cc(C)ccc23)cc1 [ST-19],–,7.4,–
Cn1cc(C(=O)N2CCCc3ccccc32)c2ccccc21 [ST-40],inactive,–,–
CCOC(=O)N1CCc2c(c3cc(C(=O)c4ccc(C)c5ccccc45)ccc3n2CC)C1,–,6,–
CC(=O)c1c(C)n(CCCOc2ccccc2)c2ccccc12 [ST-44],–,> 20,–
"CCCCCc1cc(O)c2c(c1)OC(C)(C)[C@@H]1CCC(C)=C[C@@H]21 [THC, Δ^9-THC]",–,–,"potencies and efficacies at killing these cells ([1]; T98 g, MDA231 and sknmc cells): inconsistent potencies and efficacies"
COc1ccc2c(c1)c(C(=O)c1ccc(C)c3ccccc13)c(C)n2CCN1CCOCC1 [ST-21],–,29,–
"Cc1c(C(=O)c2cccc3ccccc23)c2cccc3c2n1[C@@H](CN1CCOCC1)CO3 [ST-1, WIN55212-2]",–,2.1,"binding affinity [2]: nanomolar affinity; excitatory transmission [3]: inhibit excitatory transmission; [35S]-GTPγS binding [4]: increase [^35S]-GTPγS binding; EC50 ([1]; Homo sapiens, range over the three cell lines (FIG. 1), read-out: potency at killing T98 g, MDA231 and sknmc cells): 1.5 to 2.9 µM; toxic efficacy ([1]; rank order of cell lines): T98 g>MDA>sknmc"
COCCn1c(C)c(C(=O)N2CCC3(CC2)NC(=O)N(C)C3=O)c2ccccc21 [ST-8],–,29,–
Cc1ccc(C(=O)c2c(C)n(CCN3CCOCC3)c3cc(Cl)ccc23)c2ccccc12 [ST-24],–,1.4,–
CCCn1cc(C(=O)c2ccc(C)c3ccccc23)c2ccccc21 [ST-14],inactive,–,–
"CCCn1c2ccccc2c2cc(C(=O)c3ccc(C)c4ccccc34)ccc21 [ST-58, (9-propyl-carbazol-3-yl)(4-methyl-naphthyl)methanone]",inactive,–,–
COc1ccc2c(c1)c(C(O)N1CCCC(c3nnc4ccccn34)C1)c(C)n2C (stereo not shown) [ST-42],inactive,–,–
CC(=O)c1c(C)n(CCOc2cccc3ccccc23)c2ccccc12 [ST-45],–,30,–
